# According to patent US20230227769A1, “Means and Methods to Improve Yeast Fermentation Efficiency” (VIB VZW, priority 2020, published 2023):
# Test system: 2G industrial yeast strains MD4 and T18
# Test: Fermentations in lignocellulose hydrolysates spiked with a range of inhibitor concentrations
# Format: cell-based, S. cerevisiae
# Settings: five lignocellulose hydrolysates spiked with a range of inhibitor concentrations; both strains MD4 and T18
# Experimental: The medium was spiked with different industrially relevant concentrations of (FIG. 1A, FIG. 1E) HMF, (FIG. 1B, FIG. 1F) furfural, (FIG. 1C, FIG. 1G) formic acid and (FIG. 1D, FIG. 1H) acetic acid.
# As a first step in developing a yeast strain that can cope with the presence of fermentation inhibitors, the level of all relevant inhibitory compounds was measured in five different lignocellulose hydrolysates: two bagasse hydrolysates, two corn cob hydrolysates and one spruce hydrolysate (for composition see Table 2). Fermentations with two 2G industrial yeast strains, MD4 and T18, were performed using these hydrolysates spiked with a range of inhibitor concentrations.
# After preculture of the yeast strains for 48 h at 30° C. with shaking at 200 rpm in YPD2% (10 g/l yeast extract, 20 g/l bacteriological peptone, 2% D-glucose) up to stationary phase, small-scale (10 ml) semi-anaerobic fermentations with MD4 and T18 were performed at pH 5.2, 35° C., shaking at 350 rpm, and a yeast inoculum OD 5.0. Weight loss of the fermentation tubes, which is correlated with CO2 production during conversion of glucose and xylose into ethanol, was measured continuously, or sampling at different timepoints was performed to analyse sugar and inhibitor concentrations by HPLC.
row,SMILES,inhibitory effect on fermentation
1,O=Cc1ccco1 [furfural],major inhibitors
2,CC(=O)O [acetic acid],major inhibitors
3,CC(=O)CCC(=O)O [Levulinic acid],smaller inhibitory effect
4,O=C(O)c1ccc(O)cc1 [4-hydroxybenzoic acid],smaller inhibitory effect
5,O=Cc1ccc(O)cc1 [4-hydroxybenzaldehyde],smaller inhibitory effect
6,COc1cc(C=O)ccc1O [vanillin],smaller inhibitory effect
7,O=CO [formic acid],major inhibitors
8,"O=Cc1ccc(CO)o1 [HMF, 5-(hydroxymethyl)furfural]",major inhibitors
